In US20230149419A1, “COMPOSITION FOR PREVENTING OR TREATING NEUROINFLAMMATORY DISEASES, COMPRISING CHLORPROMAZINE” (GliaCellTech Inc., priority 2020, published 2023):

Columns and labels:
[1] = system: primary microglia from Psen2 mutation mouse model of Alzheimer's disease; assay: Effect of REV-ERBα agonist on LPS-induced IL-6 secretion (ELISA), Psen2 mutation microglia; type: cell-based; details: for IL-6 secreted: KI/+ microglia
Protocol: (§1) The efficacy of SR9009 was evaluated by analyzing IL-6 at protein and mRNA expression levels according to post-LPS treatment time (2, 6, 12, and 24 hours) in the same ELISA and qRT-PCR as in Example 5.

[2] = system: primary microglia from Psen2 mutation mouse model of Alzheimer's disease; assay: Effect of REV-ERBα agonist on LPS-induced IL-6 mRNA (qRT-PCR), Psen2 mutation microglia; type: cell-based; details: for IL-6 mRNA expression level: KI/+ microglia
Protocol: as §1

[3] = system: primary microglia from wild-type mice; assay: Effect of REV-ERBα agonist on LPS-induced IL-6 secretion (ELISA), wild-type microglia; type: cell-based, mouse; details: for IL-6 secreted: WT microglia
Protocol: as §1

[4] = system: primary microglia from wild-type mice; assay: Effect of REV-ERBα agonist on LPS-induced IL-6 mRNA (qRT-PCR), wild-type microglia; type: cell-based, mouse; details: for IL-6 mRNA expression level: WT microglia
Protocol: as §1

[5] = 10 NM SR9009, LPS 1 μg/mL 2 h (Group 34)
[6] = 10 NM SR9009, LPS 1 μg/mL 6 h (Group 34)
[7] = 10 NM SR9009, LPS 1 μg/mL 12 h (Group 34)
[8] = 10 NM SR9009, LPS 1 μg/mL 24 h (Group 34)
[9] = wild-type microglia, group 32 vs 31, 2, 6, 12 and 24 hours

Q: How did the IL-6 secreted [1, 5] turn out when CCOC(=O)N1CCC(CN(Cc2ccc(Cl)cc2)Cc2ccc([N+](=O)[O-])s2)C1 (centres unmarked) [SR9009] was run?
A: 38.229 pg/mL

Q: What about the IL-6 secreted [1, 6] of the same compound?
A: 332.114 pg/mL

Q: What about the IL-6 secreted [1, 7] of the same compound?
A: 1146.560 pg/mL

Q: And the IL-6 secreted [1, 8]?
A: 1657.510 pg/mL

Q: And the “production of IL-6 (in words)” value ([1]; Psen2 mutation microglia, SR9009-treated group vs group 33)?
A: cannot repress

Q: What about the “IL-6 mRNA expression level” value [2, 5] of the same compound?
A: 1.134 fold

Q: What about the “IL-6 mRNA expression level” value [2, 6] of the same compound?
A: 7.810 fold

Q: And the “IL-6 mRNA expression level” value [2, 7]?
A: 8.512 fold

Q: What about the “IL-6 mRNA expression level” value [2, 8] of the same compound?
A: 11.141 fold

Q: And the “mRNA expression of IL-6 (in words)” value ([2]; Psen2 mutant microglia, group 34 vs 33)?
A: cannot repress

Q: And the IL-6 secreted ([3]; 10 NM SR9009, LPS 1 μg/mL 2 h (Group 32))?
A: 24.467 pg/mL

Q: What about the IL-6 secreted ([3]; 10 NM SR9009, LPS 1 μg/mL 6 h (Group 32)) of the same compound?
A: 85.630 pg/mL

Q: And the IL-6 secreted ([3]; 10 NM SR9009, LPS 1 μg/mL 12 h (Group 32))?
A: 361.583 pg/mL

Q: And the IL-6 secreted ([3]; 10 NM SR9009, LPS 1 μg/mL 24 h (Group 32))?
A: 555.053 pg/mL

Q: And the “production of IL-6 (in words)” value [3, 9]?
A: repressed the production of IL-6

Q: What about the “IL-6 mRNA expression level” value ([4]; SR9009, LPS 1 μg/mL 2 h (Group 32)) of the same compound?
A: 0.456 fold

Q: What about the “IL-6 mRNA expression level” value ([4]; SR9009, LPS 1 μg/mL 6 h (Group 32)) of the same compound?
A: 1.098 fold

Q: And the “IL-6 mRNA expression level” value ([4]; SR9009, LPS 1 μg/mL 12 h (Group 32))?
A: 1.129 fold

Q: And the “IL-6 mRNA expression level” value ([4]; SR9009, LPS 1 μg/mL 24 h (Group 32))?
A: 2.150 fold

Q: And the “mRNA expression of IL-6 (in words)” value [4, 9]?
A: repressed the mRNA expression of IL-6
